Results reported in patent US20170355705A1 (GlaxoSmithKline Intellectual Property (No.2) Limited, priority 2014, published 2017).

The compounds below were run against T1, SIRT1 (Homo sapiens, UniProt Q96EB6) (assay: Trp mass spectrometry assay of SIRT1 activity (EC1.5, percent maximum activation)). Settings: Trp mass spectrometry assay; 0.5 μM peptide substrate, 120 μM βNAD+, 10 nM SIRT1, 25 minutes at 25° C.
T1 sequence (Q96EB6 1-747): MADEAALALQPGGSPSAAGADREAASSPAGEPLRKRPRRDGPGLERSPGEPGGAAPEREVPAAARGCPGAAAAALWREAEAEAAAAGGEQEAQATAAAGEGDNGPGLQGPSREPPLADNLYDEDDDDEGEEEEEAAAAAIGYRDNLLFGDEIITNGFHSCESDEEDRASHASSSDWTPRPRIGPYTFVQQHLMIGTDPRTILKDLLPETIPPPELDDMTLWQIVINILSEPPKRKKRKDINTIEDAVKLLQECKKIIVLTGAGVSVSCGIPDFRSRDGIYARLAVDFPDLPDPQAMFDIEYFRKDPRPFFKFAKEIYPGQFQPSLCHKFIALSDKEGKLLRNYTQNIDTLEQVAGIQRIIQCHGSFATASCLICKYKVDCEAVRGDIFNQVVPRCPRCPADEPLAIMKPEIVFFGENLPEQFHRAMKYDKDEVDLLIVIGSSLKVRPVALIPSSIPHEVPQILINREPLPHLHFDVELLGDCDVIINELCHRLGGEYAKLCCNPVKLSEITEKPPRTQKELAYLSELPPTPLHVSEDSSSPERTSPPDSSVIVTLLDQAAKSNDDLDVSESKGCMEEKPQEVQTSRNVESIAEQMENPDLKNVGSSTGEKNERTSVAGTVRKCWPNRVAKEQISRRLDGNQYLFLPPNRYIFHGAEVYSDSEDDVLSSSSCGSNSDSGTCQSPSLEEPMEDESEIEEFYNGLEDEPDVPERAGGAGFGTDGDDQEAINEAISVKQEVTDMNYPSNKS
Assay type: biochemical
Summary of the method: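 Activation values derive from mass-spectrometric measurement of NAD-dependent deacetylation product after a 25 min reaction of bacterially expressed His-tagged SIRT1 with a fluorophore-labelled Trp peptide.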

SMILES	TRP Activity (EC1.5, concentration of test compound that results in 150% activation of SIRT1)	TRP MAX RESP (percent maximum fold activation)
Cc1ccc(-c2ccc3c(n2)N(C(=O)Nc2cccnc2)[C@H]2CCN3C2)c(C)n1 [Example 201, (4S)-7-(2,6-dimethylpyridin-3-yl)-N-(pyridin-3-yl)-3,4-dihydro-1,4-methanopyrido[2,3-b][1,4]diazepine-5(2H)-carboxamide]	B (EC1.5 1-25 μM)	A (Fold activation ≧150%)
Cc1cc(-c2ccc3c(n2)N(C(=O)Nc2nc4scc(C)n4n2)[C@H]2CCN3C2)ccn1 [Example 202, (4S)-7-(2-methylpyridin-4-yl)-N-(6-methylthiazolo[3,2-b][1,2,4]triazol-2-yl)-3,4-dihydro-1,4-methanopyrido[2,3-b][1,4]diazepine-5(2H)-carboxamide]	B (EC1.5 1-25 μM)	A (Fold activation ≧150%)
O=C(Nc1cccnc1)N1c2nc(N3CCOC[C@@H]3CO)ccc2N2CC[C@H]1C2 [Example 203, (4S)-7-((S)-3-(hydroxymethyl)morpholino)-N-(pyridin-3-yl)-3,4-dihydro-1,4-methanopyrido[2,3-b][1,4]diazepine-5(2H)-carboxamide]	C (EC1.5>25 μM)	B (Fold Activation <150%)
C[C@@H]1COCCN1c1ccc2c(n1)N(C(=O)Nc1cccnc1)[C@H]1CCN2C1 [Example 204, (4S)-7-((R)-3-methylmorpholino)-N-(pyridin-3-yl)-3,4-dihydro-1,4-methano-pyrido[2,3-b][1,4]diazepine-5(2H)-carboxamide]	B (EC1.5 1-25 μM)	A (Fold activation ≧150%)
Cc1ccc(-c2ccc3c(n2)N(C(=O)Nc2cncc(OC[C@@H](O)CO)n2)[C@H]2CCN3C2)cn1 [Example 205, (4S)-N-(6-((S)-2,3-dihydroxypropoxy)pyrazin-2-yl)-7-(6-methylpyridin-3-yl)-3,4-dihydro-1,4-methanopyrido[2,3-b][1,4]diazepine-5(2H)-carboxamide]	B (EC1.5 1-25 μM)	A (Fold activation ≧150%)
CN1CCN(c2ccc3c(n2)N(C(=O)Nc2cnccn2)[C@H]2CCN3C2)CC1 [Example 206, (4S)-7-(4-methylpiperazin-1-yl)-N-(pyrazin-2-yl)-3,4-dihydro-1,4-methanopyrido[2,3-b][1,4]diazepine-5(2H)-carboxamide]	B (EC1.5 1-25 μM)	A (Fold activation ≧150%)
O=C(Nc1cnccn1)N1c2nc(-c3ccc(C(F)(F)F)nc3)ccc2N2CC[C@H]1C2 [Example 208, (4S)-N-(pyrazin-2-yl)-7-(6-(trifluoromethyl)pyridin-3-yl)-3,4-dihydro-1,4-methanopyrido[2,3-b][1,4]diazepine-5(2H)-carboxamide]	B (EC1.5 1-25 μM)	A (Fold activation ≧150%)
Cc1ccc(-c2ccc3c(n2)N(C(=O)Nc2cccc4cnccc24)[C@H]2CCN3C2)cn1 [Example 209, (4S)-N-(isoquinolin-5-yl)-7-(6-methylpyridin-3-yl)-3,4-dihydro-1,4-methanopyrido[2,3-b][1,4]diazepine-5(2H)-carboxamide]	B (EC1.5 1-25 μM)	A (Fold activation ≧150%)
Cc1cc(-c2nc3c(cc2Cl)N2CC[C@@H](C2)N3C(=O)Nc2cccnc2)ccn1 [Example 210, (9S)-4-chloro-5-(2-methylpyridin-4-yl)-N-(pyridin-3-yl)-1,6,8-triazatricyclo[7.2.1.0{2,7}]dodeca-2,4,6-triene-8-carboxamide]	B (EC1.5 1-25 μM)	A (Fold activation ≧150%)
CC1(C)CN(c2ccc3c(n2)N(C(=O)Nc2cnccn2)[C@H]2CCN3C2)CCO1 [Example 211, (4S)-7-(2,2-dimethylmorpholino)-N-(pyrazin-2-yl)-3,4-dihydro-1,4-methanopyrido[2,3-b][1,4]diazepine-5(2H)-carboxamide]	A (EC1.5<1 μM)	A (Fold activation ≧150%)
Cc1cc(-c2ccc3c(n2)N(C(=O)Nc2cnccn2)[C@H]2CCN3C2)cnn1 [Example 212, (4S)-7-(6-methylpyridazin-4-yl)-N-(pyrazin-2-yl)-3,4-dihydro-1,4-methanopyrido[2,3-b][1,4]diazepine-5(2H)-carboxamide]	B (EC1.5 1-25 μM)	A (Fold activation ≧150%)
Cc1ncc(-c2ccc3c(n2)N(C(=O)Nc2cnccn2)[C@H]2CCN3C2)s1 [Example 214, (4S)-7-(2-methylthiazol-5-yl)-N-(pyrazin-2-yl)-3,4-dihydro-1,4-methanopyrido[2,3-b][1,4]diazepine-5(2H)-carboxamide]	B (EC1.5 1-25 μM)	A (Fold activation ≧150%)

Second part, the compound after the results:

TRP Activity (EC1.5, concentration of test compound that results in 150% activation of SIRT1)	TRP MAX RESP (percent maximum fold activation)	SMILES
B (EC1.5 1-25 μM)	A (Fold activation ≧150%)	COC(=O)c1cc(-c2ccc3c(n2)N(C(=O)Nc2cnccn2)[C@H]2CCN3C2)ccn1 [Example 215, methyl 4-((4S)-5-(pyrazin-2-ylcarbamoyl)-2,3,4,5-tetrahydro-1,4-methanopyrido[2,3-b][1,4]diazepin-7-yl)picolinate]
A (EC1.5<1 μM)	A (Fold activation ≧150%)	O=C(Nc1cnccn1)N1c2nc(-c3ccnc(C(F)F)c3)ccc2N2CC[C@H]1C2 [Example 216, (4S)-7-(2-(difluoromethyl)pyridin-4-yl)-N-(pyrazin-2-yl)-3,4-dihydro-1,4-methanopyrido[2,3-b][1,4]diazepine-5(2H)-carboxamide]
B (EC1.5 1-25 μM)	A (Fold activation ≧150%)	Cc1cc(-c2ccc3c(n2)N(C(=O)Nc2cnccn2)[C@H]2CCN3C2)c(F)cn1 [Example 217, (4S)-7-(5-fluoro-2-methylpyridin-4-yl)-N-(pyrazin-2-yl)-3,4-dihydro-1,4-methanopyrido[2,3-b][1,4]diazepine-5(2H)-carboxamide]
B (EC1.5 1-25 μM)	A (Fold activation ≧150%)	O=C(Nc1cnccn1)N1c2nc(-c3ccnc(CO)c3)ccc2N2CC[C@H]1C2 [Example 218, (4S)-7-(2-(Hydroxymethyl)pyridin-4-yl)-N-(pyrazin-2-yl)-3,4-dihydro-1,4 methanopyrido[2,3-b][1,4]diazepine-5(2H)-carboxamide]
C (EC1.5>25 μM)	B (Fold Activation <150%)	N#Cc1ccc(-c2ccc3c(n2)N(C(=O)Nc2cnccn2)[C@H]2CCN3C2)cn1 [Example 219, (4S)-7-(6-cyanopyridin-3-yl)-N-(pyrazin-2-yl)-3,4-dihydro-1,4-methanopyrido[2,3-b][1,4]diazepine-5(2H)-carboxamide]
B (EC1.5 1-25 μM)	A (Fold activation ≧150%)	CCc1cnc(NC(=O)N2c3nc(-c4ccc(C)nc4)ccc3N3CC[C@H]2C3)cn1 [Example 220, (4S)-N-(5-ethylpyrazin-2-yl)-7-(6-methylpyridin-3-yl)-3,4-dihydro-1,4-methanopyrido[2,3-b][1,4]diazepine-5(2H)-carboxamide]
A (EC1.5<1 μM)	A (Fold activation ≧150%)	Cc1cc(-c2ccc3c(n2)N(C(=O)Nc2cncc(OC(C)C)n2)[C@H]2CCN3C2)ccn1 [Example 221, (4S)-N-(6-isopropoxypyrazin-2-yl)-7-(2-methylpyridin-4-yl)-3,4-dihydro-1,4-methanopyrido[2,3-b][1,4]diazepine-5(2H)-carboxamide]
B (EC1.5 1-25 μM)	A (Fold activation ≧150%)	Cc1cc(-c2ccc3c(n2)N(C(=O)Nc2cnccn2)[C@H]2CCN3C2)cnc1C#N [Example 222, (4S)-7-(6-cyano-5-methylpyridin-3-yl)-N-(pyrazin-2-yl)-3,4-dihydro-1,4-methanopyrido[2,3-b][1,4]diazepine-5(2H)-carboxamide]
